Consider 3 molecules from patent US11828759B2, “Method of diagnosis” (Peter MacCallum Cancer Institute, priority 2016, dated 2023).

One assay relates to MDA-MB-231 cells. Description: 3D culture / co-culture invasion model on reconstituted basement membrane. The assay is classed as cell-based, human. Particulars: for invasive protrusions / invasive outgrowths of co-cultures: MDA-MB-231 co-cultured 1:1 with N1ME stefin A low myoepithelial cells, 50 μM inhibitor in media, refreshed every 48 hours, vs DMSO control, n=3. Here is the method: All 3D cultures were performed using CULTREX® (Trevigen, Gaithersburg, MD, 3433-005-01) similar to previously described (Mullins et al.). Briefly, 8 well chambers (THERMOFISHER, NUN155409) were coated with 100% CULTREX and allowed to solidify at 37° C. Cells (pre-mixed at 1:1 ratio) were seeded on top of the solidified CULTREX and allowed to adhere for 60-90 minutes before 2% CULTREX in MEGM media (LONZA) was overlaid. Media was changed every 4 days unless otherwise stated. On day 7, Z-stacks were captured on a ZEISS LSM 780 inverted confocal microscope, and 3D-reconstructions were created using IMARIS.
Bright-field images at 40× magnification were taken on the Olympus BX41 using a DP25 camera and DP2-BSW software (Olympus, TYO, Japan) to observe overall multicellular morphology. Nuclei were labelled with cell permeable Hoechst (Thermo Scientific, MA, USA, 33342) and rinsed with PBS. Confocal microscopy was performed on a Zeiss LSM 780 inverted confocal microscope (Zeiss, Thornwood, NY, USA) with a 10×/0.45 air-objective, with 37° C., 5% CO2 incubation. Z-stacks were captured using ZEN software (Zeiss) and 3D-reconstructions were created using IMARIS (Bitplane, Switzerland) including volume rendering.
Images of 3D cultures were processed and analyzed using the Fiji distribution of IMAGEJ (Schindelin et al. 2012) as follows. Extraction and mask generation of the individual cultures was carried out by applying an edge filter followed by an unsharp mask (radius=6, mask=0.8). The resulting image was blurred using a Gaussian filter (sigma=4) to make subsequent thresholding more accurate. A threshold was applied, manually adjusted if required and used to create a binary mask. The resulting mask was filtered by size to remove small, erroneous, debris. Each individual 3D cultures mask was then measured for its perimeter and convex hull lengths. […]
All statistics were calculated and graphed using PRISM version 7. […] Variation in mean convex hull to perimeter ratio was determined using one-way ANOVA followed by Tukey's post hoc analysis.

A further assay relates to E-cadherin. Description: Western blot of E-cadherin in N1ME cells and supernatant after CA-074 treatment. In kind it is cell-based, human. Particulars: N1ME stefin A wild type or stefin A low cells; CA-074 for 72 hours. Here is the method: (§1) Cells were lysed by freezing in citrate buffer (50 mM citrate, pH 5.5, 0.5% CHAPS, 0.1% TRITON™ X-100, 4 mM DTT). For cathepsin B activity gels, activity-based probes [GB123 (1 μM) (29) or BMV109 (0.1 μM) (Verdoes et al. 2013)] were added to lysates from a 100×stock, and proteins were incubated for 30 minutes at 37° C. The addition of 4×sample buffer (40% glycerol, 200 mM Tris-HCl pH 6.8, 0.04% bromophenol blue, 5% beta-mercaptoethanol) stopped the reaction with boiling for 10 minutes. Proteins (30-50 μg) were separated by SDS-PAGE (on either 15% acrylamide or gradient 4-20% gels, precast from BIO-RAD, CA, USA) and visualized using a TYPHOON flatbed laser scanner (GE Healthcare, UK) for Cy5 fluorescence. For immunoblotting, proteins were transferred to nitrocellulose membranes and subjected to standard Western blotting protocols. Membranes were incubated with 1 μg/ml primary antibodies against stefin A, cathepsin B (R&D Systems, Minneapolis, USA, AF965), DSG3 (Life Technologies, 326300), E-cadherin (Novus, NB-110-56937), or 1:10,000 dilutions of β-actin (Sigma-Aldrich, MO, USA, A22280) or GAPDH (Cell Signaling Technology, MA, USA, 8884). Signal was detected using ECL (GE Healthcare), G:Box GelDoc (Syngene, CBG, UK) and GeneSys (Syngene) software with automatic exposure.
(§2) To collect secreted proteins, cells were incubated in serum free media for 24 hours. […]

For another assay, the system named is DSG3. Description: Western blot of DSG3 in N1ME cells and conditioned media after CA-074 treatment. The assay is classed as cell-based, human. Particulars: CA-074 for 72 hours vs DMSO. On the procedure: as §1, §2
(In western blotting, separated proteins are transferred to a membrane and probed.)

For assay [1], the system named is MMTV-PyMT mice (spontaneous mammary gland tumors). Put plainly: MMTV-PyMT mouse model of DCIS-to-invasive transition. The assay is classed as in vivo. As to conditions: 50 mg/kg intraperitoneal daily, day 30-49. Here is the method:
Mouse investigations were performed after approval by the La Trobe University Animal Ethics Committee. Bl/6 MMTV-PyMT positive female mice were injected (intraperitoneal, 200 μl/20 g mouse) daily with 50 mg/kg CA-074 or vehicle (5% DMSO/saline) from day 30-49. On day 50, mice were culled and second, third and fourth mammary glands were resected and sent for histology. Mouse tissues were fixed in 10% buffered formalin for 6 hours and paraffin-embedded. Sections at three different depths throughout the mammary gland were taken and were stained with hematoxylin and eosin according to standard protocols. Alternatively, sections were stained with 1 μg/ml anti-α-smooth muscle actin (ABCAM, ab66133) or with isotype control antibodies, as above. Sections were scored by a pathologist blinded to treatment groups (Sandra O'Toole) for the presence of invasive regions of cancer growth within the mammary gland. Experiment included 8 mice per group.

The next assay addresses T1, cathepsin L (Homo sapiens, UniProt P07711).
T1 construct: SDS-PAGE gel electrophoresis of N1ME cell lysate incubated with increasing concentrations of recombinant stefin A; endogenous in cells; host or cells: N1ME (hTERT-immortalized human myoepithelial cells), lysed in citrate buffer pH 5.5
Put plainly: Stefin A in vitro inhibition of cathepsin L in N1ME cell lysate (BMV109 activity based probe). The assay is classed as biochemical. As to conditions: increasing concentrations of recombinant stefin A, 15 min at 37 C.

The next assay has as its target T2, cathepsin B (Homo sapiens, UniProt P07858).
T2 construct: SDS-PAGE gel electrophoresis of N1ME cell lysate incubated with increasing concentrations of recombinant stefin A; endogenous in cells; host or cells: N1ME (hTERT-immortalized human myoepithelial cells), lysed in citrate buffer pH 5.5
Description: Stefin A in vitro inhibition of cathepsin B in N1ME cell lysate (BMV109 activity based probe). The assay is classed as biochemical. Particulars: increasing concentrations of recombinant stefin A, 15 min at 37 C. Here is the method: as §1, with “exposure. […]” for “exposure.”

“Also recorded” adds a separate entry of the source.

T1 sequence (P07711 114-333): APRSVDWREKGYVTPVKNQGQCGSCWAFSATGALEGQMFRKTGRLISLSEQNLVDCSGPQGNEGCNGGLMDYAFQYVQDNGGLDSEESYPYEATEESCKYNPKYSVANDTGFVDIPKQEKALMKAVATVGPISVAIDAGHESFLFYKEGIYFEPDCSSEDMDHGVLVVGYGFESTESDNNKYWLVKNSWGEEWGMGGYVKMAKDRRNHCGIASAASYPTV

On to `CCCNC(=O)[C@H]1O[C@@H]1C(=O)N[C@H](C(=O)N1CCC[C@H]1C(=O)O)[C@@H](C)CC` [CA-074], for which the “invasive protrusions / invasive outgrowths of co-cultures” value with MDA-MB-231 cells is reported as “rescued the phenotype caused by stefin A loss”. In addition, the “E-cadherin expression in whole cell lysates or ecto-protein” value in the assay with E-cadherin was “did not affect E-cadherin expression”. Moreover, in the assay with DSG3 (N1ME stefin A low cells), the “DSG3 protein in whole cell lysates” value is “rescued in whole cell lysates; also recorded: an increase in protein was noted for DSG3”. Besides, the “cleaved extracellular domain of DSG3 (ecto-DSG3) in conditioned media” value in the assay on DSG3 (N1ME wild type and stefin A low cells) was “decreased the cleaved extracellular domain of DSG3”. In addition, the “mice progressed to IDC at experimental endpoint” value in assay [1] (glands scored at day 50, 8 mice per group, control 6/8) is on record as 2/8. For the same molecule, in assay [1] (vs DMSO control), the “number of invasive regions throughout the mammary gland” value is “decreased the number of invasive regions”.

Take JPM-OEt: the “invasive protrusions / invasive outgrowths of co-cultures” value in the assay with MDA-MB-231 cells is “reverted the invasive protrusions in the co-cultures, however not to the same extent as CA-074, and was not statistically significant”.

B1: recombinant stefin A: recombinant stefin A (R&D Systems, 1407-PI-050), an 11 kDa cysteine protease inhibitor (protein, UniProt P01040 1-98, looked up)
Cystatin-A: MIPGGLSEAKPATPEIQEIVDKVKPQLEEKTNETYGKLEAVQYKTQVVAGTNYYIKVRAGDNKYMHLKVFKSLPGQNEDLVLTGYQVDKNKDDELTGF
With B1, the “invasion of MDA-MB-231 cells cultured alone” value with MDA-MB-231 cells (MDA-MB-231 alone, without myoepithelial cells) is reported as “did not inhibit invasion”. Besides, the “cathepsin L activity” value with cathepsin L is “can be inhibited”. For the same molecule, in the assay with cathepsin B, the “cathepsin B activity” value is “can be inhibited”.
